Patent US12655126B2, “Imidazole-pyrazole derivatives as antibacterials” (Hoffmann-La Roche Inc., priority 2020, dated 2026)
Structures can show the parent of a compound that is named as a salt. Where two headings read alike, the source gives them in different places.

Test system: Acinetobacter baumannii ATCC17961
Experiment: Antimicrobial susceptibility testing: 90% growth inhibitory concentration (IC90) determination
Type: cell-based
Conditions: read-out: ATCC 17961 IC90
Description: Antimicrobial Susceptibility Testing:
90% Growth Inhibitory Concentration (IC90) Determination
The in vitro antimicrobial activity of the compounds was determined according to the following procedure:
The assay used a 10-points Iso-Sensitest broth medium to measure quantitatively the in vitro activity of the compounds against Acinetobacter baumannii ATCC17961.
Stock compounds in DMSO were serially twofold diluted (e.g. range from 50 to 0.097 μM final concentration) in 384 wells microtiter plates and inoculated with 49 μl the bacterial suspension in Iso-Sensitest medium to have a final cell concentration of ˜5×10^(5) CFU/ml in a final volume/well of 50 ul/well. Microtiter plates were incubated at 35±2° C.
Bacterial cell growth was determined with the measurement of optical density at λ=600 nm each minutes over a time course of 16 h. Growth inhibition was calculated during the logarithmic growth of the bacterial cells with determination of the concentration inhibiting 50% (IC50) and 90% (IC90) of the growth.
Table 1 provides the 90% growth inhibitory concentrations (IC90) in micromoles per liter of the compounds of present invention obtained against the strain Acinetobacter baumannii ATCC17961.

[1] = Acinetobacter baumannii ATCC17961, Iso-Sensitest broth, growth by OD 600 nm over 16 h, 90% growth inhibitory concentration
[2] = Acinetobacter baumannii, ATCC17961, 16 h

Row | IC90 [1] [nM] | SMILES | IC90 [2] [nM]
1 | 230 | Cn1c(-c2cn(-c3ccc(N)cn3)nc2C(F)(F)F)cnc1C(=O)Nc1ccc(C(=O)N2CCN(C(=O)[C@H]3CC[N+](C)(C)C[C@@H]3O)CC2)c(Cl)c1 (stereo in doubt) [Example D8, 5-[1-(5-amino-2-pyridyl)-3-(trifluoromethyl)pyrazol-4-yl]-N-[3-chloro-4-[4-[(3R,4S)-3-hydroxy-1,1-dimethyl-piperidin-1-ium-4-carbonyl]piperazine-1-carbonyl]phenyl]-1-methyl-imidazole-2-carboxamide; formate] | 
2 |  | Cn1c(-c2cn(-c3ncccn3)nc2C(F)(F)F)cnc1C(=O)Nc1ccc(C(=O)N[C@H]2[C@@H]3CN(C(=O)[C@@H]4C[C@@H](O)C[N+]4(C)C)C[C@@H]32)c(Cl)c1 (racemic) [Example B8, rac-(2R,4S)-2-((1R,5S,6S)-6-(2-chloro-4-(1-methyl-5-(1-(pyrimidin-2-yl)-3-(trifluoromethyl)-1H-pyrazol-4-yl)-1H-imidazole-2-carboxamido)benzamido)-3-azabicyclo[3.1.0]hexane-3-carbonyl)-4-hydroxy-1,1-dimethylpyrrolidin-1-ium] | 1500
3 |  | Cn1c(-c2cn(-c3ccc(N)cn3)nc2C(F)(F)F)cnc1C(=O)Nc1ccc(C(=O)N[C@H]2[C@@H]3CN(C(=O)N[C@@H]4C[N+](C)(C)C[C@H]4O)C[C@@H]32)c(Cl)c1 (racemic) [Example D18, (exo)-6-[[4-[[5-[1-(5-Aminopyridin-2-yl)-3-(trifluoromethyl)pyrazol-4-yl]-1-methylimidazole-2-carbonyl]amino]-2-chlorobenzoyl]amino]-N-[rac-(trans)-4-hydroxy-1,1-dimethylpyrrolidin-1-ium-3-yl]-3-azabicyclo[3.1.0]hexane-3-carboxamide; formate] | 290
4 | 820 | CNC(=O)c1ccc(-n2cc(-c3cnc(C(=O)Nc4ccc(C(=O)N5CCN(C(=O)C6CC[N+](C)(C)CC6)CC5)c(Cl)c4)n3C)c(C(F)(F)F)n2)nc1 [Example A3, 6-[4-[2-[[3-chloro-4-[4-(1,1-dimethylpiperidin-1-ium-4-carbonyl)piperazine-1-carbonyl]phenyl]carbamoyl]-3-methyl-imidazol-4-yl]-3-(trifluoromethyl)pyrazol-1-yl]-N-methyl-pyridine-3-carboxamide; formate] | 
5 |  | Cn1c(-c2cn(-c3ccc(NCCN)cn3)nc2C(F)(F)F)cnc1C(=O)Nc1ccc(C(=O)N2CCN(C(=O)C3CC[N+](C)(C)CC3)CC2)c(Cl)c1 [Example M1, 5-[1-[5-(2-aminoethylamino)-2-pyridyl]-3-(trifluoromethyl)pyrazol-4-yl]-N-[3-chloro-4-[4-(1,1-dimethylpiperidin-1-ium-4-carbonyl)piperazine-1-carbonyl]phenyl]-1-methyl-imidazole-2-carboxamide; 2,2,2-trifluoroacetic acid; 2,2,2-trifluoroacetate] | 100
6 | 290 | Cc1cc(-n2cc(-c3cnc(C(=O)Nc4ccc(C(=O)N5CCN(C(=O)C6CC[N+](C)(C)CC6)CC5)c(Cl)c4)n3C)c(C(F)(F)F)n2)ncc1N [Example A9, 5-[1-(5-amino-4-methyl-2-pyridyl)-3-(trifluoromethyl)pyrazol-4-yl]-N-[3-chloro-4-[4-(1,1-dimethylpiperidin-1-ium-4-carbonyl)piperazine-1-carbonyl]phenyl]-1-methyl-imidazole-2-carboxamide] | 
7 | 1600 | Cn1c(-c2cn(-c3ncccn3)nc2C(F)(F)F)cnc1C(=O)Nc1ccc(C(=O)N2CCN(C(=O)[C@@H]3C[C@@H](O)C[N+]3(C)C)CC2)c(Cl)c1 [Example B2, N-[3-chloro-4-[4-[(2S,4R)-4-hydroxy-1,1-dimethyl-pyrrolidin-1-ium-2-carbonyl]piperazine-1-carbonyl]phenyl]-1-methyl-5-[1-pyrimidin-2-yl-3-(trifluoromethyl)pyrazol-4-yl]imidazole-2-carboxamide; formate] | 
8 | 390 | Cn1c(-c2cn(-c3ccc(CO)cn3)nc2C(F)(F)F)cnc1C(=O)Nc1ccc(C(=O)N2CCN(C(=O)C3CC[N+](C)(C)CC3)CC2)c(Cl)c1 [Example F1, N-[3-Chloro-4-[4-(1,1-dimethylpiperidin-1-ium-4-carbonyl)piperazine-1-carbonyl]phenyl]-5-[1-[5-(hydroxymethyl)-2-pyridyl]-3-(trifluoromethyl)pyrazol-4-yl]-1-methyl-imidazole-2-carboxamide; formate] | 
9 | 150 | Cn1c(-c2cn(-c3ccc(N)cn3)nc2C(F)(F)F)cnc1C(=O)Nc1ccc(C(=O)N2CCN(C(=O)C3CC[N+](C)(C)CC3)CC2)c(Cl)c1 [Example D3, 5-[1-(5-amino-2-pyridyl)-3-(trifluoromethyl)pyrazol-4-yl]-N-[3-chloro-4-[4-(1,1-dimethylpiperidin-1-ium-4-carbonyl)piperazine-1-carbonyl]phenyl]-1-methyl-imidazole-2-carboxamide; formate] | 
10 | 400 | Cn1c(-c2cn(-c3ccc(N)cn3)nc2C(F)(F)F)cnc1C(=O)Nc1ccc(C(=O)N2CCN(C(=O)[C@@H]3[C@@H](O)CC[N+]3(C)C)CC2)c(Cl)c1 (racemic) [Example D2, 5-[1-(5-amino-2-pyridyl)-3-(trifluoromethyl)pyrazol-4-yl]-N-[3-chloro-4-[4-[(2S,3S)-3-hydroxy-1,1-dimethyl-pyrrolidin-1-ium-2-carbonyl]piperazine-1-carbonyl]phenyl]-1-methyl-imidazole-2-carboxamide; formate] | 
11 |  | Cn1c(-c2cn(-c3ccc(N)cn3)nc2C(F)(F)F)cnc1C(=O)Nc1ccc(C(=O)N2CCN(C(=O)[C@@H]3C[C@@H](O)C[N+]3(C)C)CC2)c(Cl)c1 [Example D1, 5-[1-(5-Amino-2-pyridyl)-3-(trifluoromethyl)pyrazol-4-yl]-N-[3-chloro-4-[4-[(2S,4R)-4-hydroxy-1,1-dimethyl-pyrrolidin-1-ium-2-carbonyl]piperazine-1-carbonyl]phenyl]-1-methyl-imidazole-2-carboxamide; formate] | 310
12 |  | Cn1c(-c2cn(-c3ncccn3)nc2C(F)(F)F)cnc1C(=O)Nc1ccc(C(=O)N2CCN(C(=O)C3CC[N+](C)(C)CC3)CC2)c(Cl)c1 [Example B1, N-[3-Chloro-4-[4-(1,1-dimethylpiperidin-1-ium-4-carbonyl)piperazine-1-carbonyl]phenyl]-1-methyl-5-[1-pyrimidin-2-yl-3-(trifluoromethyl)pyrazol-4-yl]imidazole-2-carboxamide; formate] | 940
13 | 510 | Cn1c(-c2cn(-c3ccc(N)c(F)n3)nc2C(F)(F)F)cnc1C(=O)Nc1ccc(C(=O)N2CCN(C(=O)C3CC[N+](C)(C)CC3)CC2)c(Cl)c1 [Example A10, 5-[1-(5-amino-6-fluoro-2-pyridyl)-3-(trifluoromethyl)pyrazol-4-yl]-N-[3-chloro-4-[4-(1,1-dimethylpiperidin-1-ium-4-carbonyl)piperazine-1-carbonyl]phenyl]-1-methyl-imidazole-2-carboxamide] | 
14 | 550 | Cn1c(-c2cn(-c3ccc(N)cn3)nc2C(F)(F)F)cnc1C(=O)Nc1ccc(C(=O)N2CCN(C(=O)[C@@H]3CC(O)CC[N+]3(C)C)CC2)c(Cl)c1 (stereo partly drawn) [Example D15, 5-[1-(5-Amino-2-pyridyl)-3-(trifluoromethyl)pyrazol-4-yl]-N-[3-chloro-4-[4-[(2S)-4-hydroxy-1,1-dimethyl-piperidin-1-ium-2-carbonyl]piperazine-1-carbonyl]phenyl]-1-methyl-imidazole-2-carboxamide;formate] | 
15 | 3800 | Cn1c(-c2cn(-c3ncccn3)nc2C(F)(F)F)cnc1C(=O)Nc1ccc(C(=O)N2CCN(C(=O)[C@@H]3[C@@H](O)CC[N+]3(C)C)CC2)c(Cl)c1 [Example B3, N-[3-chloro-4-[4-[(2S,3S)-3-hydroxy-1,1-dimethyl-pyrrolidin-1-ium-2-carbonyl]piperazine-1-carbonyl]phenyl]-1-methyl-5-[1-pyrimidin-2-yl-3-(trifluoromethyl)pyrazol-4-yl]imidazole-2-carboxamide; formate] | 
16 | 4360 | Cc1c[nH]nc1-n1cc(-c2cnc(C(=O)Nc3ccc(C(=O)N4CCN(C(=O)C5CC[N+](C)(C)CC5)CC4)c(Cl)c3)n2C)c(C(F)(F)F)n1 [Example K2, N-[3-chloro-4-[4-(1,1-dimethylpiperidin-1-ium-4-carbonyl)piperazine-1-carbonyl]phenyl]-1-methyl-5-[1-(4-methyl-1H-pyrazol-3-yl)-3-(trifluoromethyl)pyrazol-4-yl]imidazole-2-carboxamide; 2,2,2-trifluoroacetate] | 
17 |  | Cn1c(-c2cn(-c3ncccn3)nc2C(F)(F)F)cnc1C(=O)Nc1ccc(C(=O)N2CCN(C(=O)C[N+]3(C)CC[C@@H](O)C3)CC2)c(Cl)c1 (stereo partly drawn) [Example A6, N-[3-chloro-4-[4-[2-[(3R)-3-hydroxy-1-methyl-pyrrolidin-1-ium-1-yl]acetyl]piperazine-1-carbonyl]phenyl]-1-methyl-5-[1-pyrimidin-2-yl-3-(trifluoromethyl)pyrazol-4-yl]imidazole-2-carboxamide; formate] | 1300

Row | SMILES | IC90 [1] [nM] | IC90 [2] [nM]
18 | Cn1c(-c2cn(-c3ccc(N)cn3)nc2C(F)(F)F)cnc1C(=O)Nc1ccc(C(=O)N[C@H]2[C@@H]3CN(C(=O)[C@@H]4C[C@@H](O)C[N+]4(C)C)C[C@@H]32)c(Cl)c1 [Example D17, 5-[1-(5-amino-2-pyridyl)-3-(trifluoromethyl)pyrazol-4-yl]-N-[3-chloro-4-[[(exo)-3-[(2S,4R)-4-hydroxy-1,1-dimethyl-pyrrolidin-1-ium-2-carbonyl]-3-azabicyclo[3.1.0]hexan-6-yl]carbamoyl]phenyl]-1-methyl-imidazole-2-carboxamide] | 300 | 
